According to US11065231B2, “Compounds and methods for the targeted degradation of interleukin-1 receptor- associated kinase 4 polypeptides” (Arvinas Operations, Inc., priority 2017, dated 2021):
pIC50: −log10 of the molar value.

Key:
IRAK4 [1] = biological target: T1, IRAK4 (Homo sapiens (Human), UniProt Q9NWZ3); test: Western blot assay for assessing degradation of IRAK4 in MCF7 cells; format: cell-based; conditions: Table 5, IRAK4 degradation, 24 hour incubation; for DC50: read-out: IRAK4 DC50; for Dmax: read-out: IRAK4 Dmax (%)
T1 sequence (Q9NWZ3 whole entry): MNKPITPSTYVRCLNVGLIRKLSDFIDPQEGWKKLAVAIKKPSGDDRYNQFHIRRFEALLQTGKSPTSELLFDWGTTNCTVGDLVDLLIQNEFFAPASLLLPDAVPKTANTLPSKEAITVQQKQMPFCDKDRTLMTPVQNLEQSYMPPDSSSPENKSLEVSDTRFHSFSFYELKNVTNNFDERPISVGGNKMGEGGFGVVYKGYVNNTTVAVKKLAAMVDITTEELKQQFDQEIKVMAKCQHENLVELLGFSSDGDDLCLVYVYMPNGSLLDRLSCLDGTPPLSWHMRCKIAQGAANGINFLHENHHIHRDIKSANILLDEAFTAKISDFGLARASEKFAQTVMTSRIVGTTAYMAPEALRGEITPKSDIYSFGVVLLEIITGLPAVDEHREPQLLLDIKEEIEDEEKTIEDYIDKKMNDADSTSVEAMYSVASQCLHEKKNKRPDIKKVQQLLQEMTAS
Procedure: Western Blot Assay for Assessing Degradation of IRAK4.
MCF7 cells, purchased from ATCC (Manassas, Va.), were used at a passage range of 2-19. Cells were seeded at 50% confluency in 96-well plates at 180 μl/well in cell media (Dulbecco's Modified Eagle medium/nutrient F-12 Ham-10% Fetal Bovine Serum) and incubated overnight. The next morning, compounds were serially diluted and added (20 μl into 180 μl media) at a final DMSO concentration of 0.1%. Cells were rinsed with cell media and replaced with compounds in media, followed by incubation overnight. After a 24 hour incubation with compound, cell were harvested (90-100% confluent at harvest). Cells were then washed once with 100 μl of Dulbecco's hosphate-buffered saline and then lysed with 40 μl of lysis buffer (1×RIPA+HALT protease inhibitor+HALT phosphatase inhibitor) on ice for 10 minutes. Lysates were then cleaned by filtration in 1.2 µm filter plates followed by western blotting. For each sample, 30 μl of lysate were added to 10 μl of 4×LDS sample buffer, then denatured at 95° C. for 5 minutes in the thermal cycler and placed on ice. Fifteen μL of each sample were then loaded on 4-15% Tris/Glycine gels and run for 25 minutes at 250 (constant) volts in 1× Tris/Glycine buffer. Protein was transferred from gels to nitrocellulose using a BioRad Turbo dry-transfer unit with the Turbo/midi default program. All blots were rinsed with ddH2O and blocked for 1 hour at room temperature in 5% bovine serum albumin (BSA) in tris-buffered saline-Tween 20 (TBS-T) (0.1%) on rocker. Blots were exposed to primary antibody in 5% BSA in TBS-T (0.1%) overnight at 4° C. on rocker. Primary antibodies, diluted 1:1000 in […], were as follows: anti-IRAK4 (cat. #: ab119942, Abcam, Cambridge, Mass.), anti-IRAK1 (cat. #: CST 4504S, Cell Signaling Technology, Danvers, Mass.), and anti-Beta-actin (Cat. #: ab8227, Abcam, Cambridge, Mass.). Blots were then washed with TBS-T (0.1%) three times for 5 minutes on a rocker at room temperature. Secondary antibody (1:18,000 anti-rabbit-HRP and/or anti-mouse-HRP in 5% BSA in TBST (0.1%) was then added, and blots incubated at room temperature rocker for 1 hour. Blots were washed 3 times in TBS-T (0.1%) for 5 minutes at room temperature on the rocker. Signal was developed with Femto Max substrate for 5 minutes and blots read on a ChemiDoc. Percent degradation was assessed by comparing IRAK4 signal in compound vs. DMSO treated lysates.

IRAK4 [2] = biological target: T1, IRAK4; test: Biochemical Z'-Lyte FRET assay for IRAK4 kinase inhibition; conditions: 2 nM enzyme, 1 mM ATP, 2 μM substrate
Procedure: Biochemical Assay for IRAK4 Kinase Inhibition.
A Z′-Lyte assay based on a fluorescence resonance energy transfer (FRET) readout was developed for measuring IRAK4-dependent phosphorylation of a FRET-peptide substrate as described by Thermo Fisher Scientific (Grand Island, N.Y.). At a starting concentration of 1.5 mM, the identified compounds were serially diluted with 100% dimethyl sulfoxide (DMSO) in 3-fold increments, into Greiner bio-one 96-well plates (cat. #: 650201, Greiner bio-one, Monroe, N.C.). Compounds were then transferred to intermediate Greiner bio-one 96-well plates and diluted 10-fold with Kinase assay buffer (25 mM HEPES, pH 7.5, 10 mM MgCl2, 10 mM MnCl2, 1 mM EGTA, and 0.01% Brij-35, 2 mM DTT). Three μL of the serially diluted compounds were then transferred in duplicate to low-volume 384-well black proxiplates (cat. #: 6008269; Perkin Elmer, Akron, Ohio), to give duplicate twelve-point concentration curves. Six μl of a 2.5× solution of IRAK4 enzyme (cat #: 40064, BPS Bioscience, San Diego, Calif.) in kinase buffer was added to each well, followed by a 10 minutes pre-incubation step. Reactions were initiated by adding 6 μl of a 2.5× substrate mix of ATP and Z′-Lyte Ser/Thr 7 peptide (cat. #: PV3180, Thermo Fisher Scientific, Grand Island, N.Y.) and proceeded at room temperature for 1 hour. The final concentration of key reagents in the 15 uL kinase reactions were 2 μM substrate, 2 nM enzyme, and 1 mM ATP, with dose responses starting at 30 μM compound. At the end of the kinase reactions, 5 μl of developing solution (as instructed in for cat. #: PV3180, Thermo Fisher Scientific, Grand Island, N.Y.) was added to each well and incubated at room temperature for 1 hour. All wells were read on an Envision 2105 Multilabel fluorescence plate reader (Perkin Elmer, Waltham, Mass.) at 400 nm excitation and 460 nm/530 nm emission. Plus and minus 100% inhibition controls were used to calculate percent inhibition and IC50 curves were generated using Graphpad Prism (La Jolla, Calif.).

Molecule	DC50 (IRAK4 [1])	pIC50 (IRAK4 [2])	Dmax (IRAK4 [1])	IRAK4 Dmax (%) (IRAK4 [1])
N-(1-(3-((2-(2,6- dioxopiperidin-3-yl)-1,3- dioxoisoindolin-5- yl)oxy)ethyl)(methyl)amino) phenyl)-5-(piperadin-1- yl)methyl)-1H- benzo[d]imidazol-2-yl)-3- (trifluoromethyl)benzamide [compound 68]	300 to 1000 nM	≤ 6.00		C (50 ≥ C > 30)
CN(CCOCCOCCOc1ccc2c(c1)C(=O)N(C1CCC(=O)NC1=O)C2=O)c1cccc(-n2c(NC(=O)c3cccc(C(F)(F)F)c3)nc3cc(F)ccc32)c1 (centres unmarked) [compound 49, N-(1-(3-((2-(2-(2-((2-(2,6-dioxopiperidin-3-yl)-1,3-dioxoisoindolin-5-yl)oxy)ethoxy)ethoxy)ethyl) (methyl)amino)phenyl)-5-fluoro-1H-benzo[d]imidazol-2-yl)-3-(trifluoromethyl)benzamide]	≥ 1000 nM	≤ 6.00		
COc1cc2nn(C3CCN(CCOCCOCCOc4ccc5c(c4)CN(C4CCC(=O)NC4=O)C5=O)CC3)cc2cc1NC(=O)c1cccc(C(F)(F)F)n1 (centres unmarked) [compound 61, N-(2-(1-(2-(2-(2-((2-(2,6-dioxopiperidin-3-yl)-1-oxoisoindolin-5-yl)oxy)ethoxy)ethoxy)ethyl)piperadin-4-yl)-6-methoxy-2H-indazol-5-yl)-6-(trifluoromethyl)picolinamide]	≥ 1000 nM	> 7.52		
N-(1-((1s,4s)-4-(13-((2-(2,6- dioxopiperidin-3-yl)-1,3- dioxoisoindolin-5-yl)oxy)- 2,5,8,11- tetraoxatetradecyl)cyclohexyl)- 5-(piperidin-1-ylmethyl)-1H- benzo[d]imidazol-2-yl)-3- (trifluoromethyl)benzamide [compound 42]	≥ 1000 nM	6.00 to 6.52		
O=C1CCC(N2C(=O)c3ccc(OCCOCCOCCN4CCN(Cc5ccc6c(c5)nc(NC(=O)c5cccc(C(F)(F)F)c5)n6-c5ccccc5)CC4)cc3C2=O)C(=O)N1 (centres unmarked) [compound 53, N-(5-((4-(2-(2-(2-((2-(2,6-dioxopiperidin-3-yl)-1,3-dioxoisoindolin-5-yl)oxy)ethoxy)ethoxy)ethyl)piperazin-1-yl)methyl)-1-phenyl-1H-benzo[d]imidazol-2-yl)-3-(trifluoromethyl)benzamide]	≥ 1000 nM	≤ 6.00		
O=C1CCC(N2C(=O)c3ccc(OCCOCCOC[C@H]4CC[C@@H](n5c(NC(=O)c6cccc(C(F)(F)F)c6)nc6cc(CN7CCCCC7)ccc65)CC4)cc3C2=O)C(=O)N1 (some centres unmarked) [compound 44, N-(1-((1s,4s)-4-((2-(2-((2-(2,6-dioxopiperidin-3-yl)-1,3-dioxoisoindolin-5-yl)oxy)ethoxy)ethoxy)methyl)cyclohexyl)-5-(piperidin-1-ylmethyl)-1H-benzo[d]imidazol-2-yl)-3-(trifluoromethyl)benzamide]	≥ 1000 nM	≤ 6.00		

More lines, main results first:

DC50 (IRAK4 [1])	pIC50 (IRAK4 [2])	Dmax (IRAK4 [1])	Molecule	IRAK4 Dmax (%) (IRAK4 [1])
≥ 1000 nM	6.00 to 6.52		Cc1ccc(-n2nc(N3CCN(CCOCCOCCOCCOc4ccc5c(c4)C(=O)N(C4CCC(=O)NC4=O)C5=O)CC3)cc2NC(=O)c2cnn3cccnc23)nc1 (centres unmarked) [compound 26, N-(3-(4-(2-(2-(2-(2-((2-(2,6-dioxopiperidin-3-yl)-1,3-dioxoisoindolin-5-yl)oxy)ethoxy)ethoxy)ethoxy)ethyl)piperazin-1-yl)-1-(5-methylpyridin-2-yl)-1H-pyrazol-5-yl)pyrazolo[1,5-a]pyrimidine-3-caboxamide]	
≥ 1000 nM	≤ 6.00		CN(CCOCCOCCOCCOc1ccc2c(c1)C(=O)N(C1CCC(=O)NC1=O)C2=O)c1cccc(-n2c(NC(=O)c3cccc(C(F)(F)F)c3)nc3cc(F)ccc32)c1 (centres unmarked) [compound 52, N-(1-(3-((2-(2-(2-(2-((2-(2,6-dioxopiperidin-3-yl)-1,3-dioxoisoindolin-5-yl)oxy)ethoxy)ethoxy)ethoxy)ethyl)(methyl)amino)phenyl)-5-fluoro-1H-benzo[d]imidazol-2-yl)-3-(trifluoromethyl)benzamide]	
≥ 1000 nM	> 7.52		O=C1CCC(N2Cc3cc(OCCOCCN4CCN(Cc5ccc6c(c5)nc(NC(=O)c5cccc(C(F)(F)F)c5)n6[C@H]5CC[C@@H](CO)CC5)CC4)ccc3C2=O)C(=O)N1 (some centres unmarked) [compound 6, N-(5-((4-(2-(2-((2-(2,6-dioxopiperidin-3-yl)-1-oxoisoindolin-5-yl)oxy)ethoxy)ethyl)piperazin-1-yl)methyl)-1-((1s,4s)-4-(hydroxymethyl)cyclohexyl)-1H-benzo[d]imidazol-2-yl)-3-(trifluoromethyl)benzamide]	
≥ 1000 nM	6.00 to 6.52		N#Cc1ccc2ncnc(N[C@H]3CC[C@H](N4CCN(CCOc5ccc6c(c5)C(=O)N(C5CCC(=O)NC5=O)C6=O)CC4)CC3)c2c1 (some centres unmarked) [compound 29]	
300 to 1000 nM	> 7.52	50 to 70%	COc1cc2nn(C3CCN(CCOCCOCCOc4ccc5c(c4)C(=O)N(C4CCC(=O)NC4=O)C5=O)CC3)cc2cc1NC(=O)c1cccc(C(F)(F)F)n1 (centres unmarked) [compound 59, N-(2-(1-(2-(2-(2-((2-(2,6-dioxopiperidin-3-yl)-1,3-dioxoisoindolin-5-yl)oxy)ethoxy)ethoxy)ethyl)piperidin-4-yl)-6-methoxy-2H-indazol-5-yl)-6-(trifluoromethyl)picolinamide]	
< 30 nM	> 7.52	50 to 70%	COc1cc2nn(C3CCN(CCOCCOc4ccc5c(c4)C(=O)N(C4CCC(=O)NC4=O)C5=O)CC3)cc2cc1NC(=O)c1cccc(C(F)(F)F)n1 (centres unmarked) [compound 58, N-(2-(1-(2-(2-((2-(2,6-dioxopiperidin-3-yl)-1,3-dioxoisoindolin-5-yl)oxy)ethoxy)ethyl)piperidin-4-yl)-6-methoxy-2H-indazol-5-yl)-6-(trifluoromethyl)picolinamide]	
≥ 1000 nM	≤ 6.00		N#Cc1ccc2ncnc(N[C@H]3CC[C@H](N4CCN(CCOCCOCCOCCOc5ccc6c(c5)C(=O)N(C5CCC(=O)NC5=O)C6=O)CC4)CC3)c2c1 (some centres unmarked) [compound 32]	
≥ 1000 nM	6.52 to 7.00	30 to 50%	CC1CCC(n2c(NC(=O)c3cccc(C(F)(F)F)c3)nc3cc(CN4CCN(CCOCCOc5ccc6c(c5)C(=O)N(C5CCC(=O)NC5=O)C6=O)CC4)ccc32)CC1 (centres unmarked) [compound 7, N-(5-((4-(2-(2-((2-(2,6-dioxopiperidin-3-yl)-1,3-dioxoisoindolin-5-yl)oxy)ethoxy)ethyl)piperazin-1-yl)methyl)-1-((1s,4s)-4-methylcyclohexyl)-1H-benzo[d]imidazol-2-yl)-3-(trifluoromethyl)benzamide]	
